Patent publication US20240150377A1, “MODULATORS OF CYSTIC FIBROSIS TRANSMEMBRANE CONDUCTANCE REGULATOR” (VERTEX PHARMACEUTICALS INCORPORATED, priority 2020, published 2024)

Molecular target: T1, CFTR (Homo sapiens, UniProt P13569, DEL508-508)
T1 construct: endogenous in cells; host or cells: primary human bronchial epithelial cells from CF subjects (F508del/MF-HBE), differentiated at air-liquid interface
Test: HBE2 assay: Ussing chamber assay of CFTR-mediated short-circuit currents
Assay type: cell-based
Settings: F508del/MF-HBE cells, 18-24 hours, 20% human serum; for Emax: read-out: HBE2 Max activity (%)
In short: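 Corrector activity read as CFTR-dependent ISC (μA/cm^2): peak forskolin current minus post-inhibitor steady state. Measured at 37 °C, voltage clamp at 0 mV, on F508del/MF-HBE epithelia grown >14 days air-liquid interface in Ussing chambers.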

[1] = 3 μM corrector, with 44 nM potentiator

T1 sequence (P13569 with tags, fused parts or gaps DEL508-508): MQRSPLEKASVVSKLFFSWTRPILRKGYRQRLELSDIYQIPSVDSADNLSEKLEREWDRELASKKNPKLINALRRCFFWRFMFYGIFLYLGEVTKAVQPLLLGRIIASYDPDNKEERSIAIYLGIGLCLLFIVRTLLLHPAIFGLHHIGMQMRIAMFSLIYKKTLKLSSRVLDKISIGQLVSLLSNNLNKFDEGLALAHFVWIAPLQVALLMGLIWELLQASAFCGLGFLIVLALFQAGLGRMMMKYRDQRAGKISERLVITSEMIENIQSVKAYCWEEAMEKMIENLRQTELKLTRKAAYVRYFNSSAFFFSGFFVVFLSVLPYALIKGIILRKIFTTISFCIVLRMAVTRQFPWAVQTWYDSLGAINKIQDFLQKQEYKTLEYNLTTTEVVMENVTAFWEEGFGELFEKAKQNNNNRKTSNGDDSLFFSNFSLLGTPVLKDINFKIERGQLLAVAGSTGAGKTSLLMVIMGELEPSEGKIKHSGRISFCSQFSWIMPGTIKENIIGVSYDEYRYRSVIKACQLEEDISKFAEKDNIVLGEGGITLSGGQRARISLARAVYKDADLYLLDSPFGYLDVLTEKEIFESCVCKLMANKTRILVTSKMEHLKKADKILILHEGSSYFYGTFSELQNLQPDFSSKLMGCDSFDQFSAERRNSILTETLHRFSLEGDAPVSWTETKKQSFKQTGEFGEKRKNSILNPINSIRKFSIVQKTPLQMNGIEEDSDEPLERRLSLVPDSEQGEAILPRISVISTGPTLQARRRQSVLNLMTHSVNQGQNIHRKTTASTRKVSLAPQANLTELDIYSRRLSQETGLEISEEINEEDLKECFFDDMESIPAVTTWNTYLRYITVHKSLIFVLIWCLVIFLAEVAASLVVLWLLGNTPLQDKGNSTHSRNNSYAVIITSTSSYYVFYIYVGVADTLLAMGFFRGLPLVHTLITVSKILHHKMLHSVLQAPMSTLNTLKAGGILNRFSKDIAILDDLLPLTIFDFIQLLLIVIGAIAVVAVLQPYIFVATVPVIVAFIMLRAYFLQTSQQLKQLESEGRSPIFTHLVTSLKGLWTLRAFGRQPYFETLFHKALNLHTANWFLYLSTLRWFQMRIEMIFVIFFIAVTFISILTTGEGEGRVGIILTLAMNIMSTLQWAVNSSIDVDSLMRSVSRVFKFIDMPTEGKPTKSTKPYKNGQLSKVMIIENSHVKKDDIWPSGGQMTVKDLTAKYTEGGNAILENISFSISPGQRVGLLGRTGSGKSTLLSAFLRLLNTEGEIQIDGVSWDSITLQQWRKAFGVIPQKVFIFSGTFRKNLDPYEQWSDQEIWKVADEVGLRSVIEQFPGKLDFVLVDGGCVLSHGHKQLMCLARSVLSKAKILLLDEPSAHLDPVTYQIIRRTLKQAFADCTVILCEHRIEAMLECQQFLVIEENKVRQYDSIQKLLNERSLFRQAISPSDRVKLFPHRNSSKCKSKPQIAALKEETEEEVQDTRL

SMILES	HBE2 Activity at 3 μM (%) (3 μM, with 44 nM potentiator)	HBE2 Activity at 3 μM (%) [1]	also measured
Cc1cccc(C)c1-c1cc2nc(n1)NS(=O)(=O)c1cccc(c1)C(=O)N(Cc1cncc(N3CCC[C@H]4CC[C@H]43)n1)[C@H](CC(C)(C)C)CO2 (single isomer, unassigned) [Compound 1315]	+++ (+++ is >60+)	–	EC50 (with 44 nM potentiator): < 1000 nM; Emax (with 44 nM potentiator): > 60%
Cc1cccc(C)c1-c1cc2nc(n1)NS(=O)(=O)c1cccc(c1)C(=O)N(Cc1cncc(N3CCCC3C(=O)N(C)C)n1)[C@H](CC(C)(C)C)CO2 (stereo partly drawn) [Compound 1660]	+++ (+++ is >60+)	–	–
Cc1cccc(C)c1-c1cc2nc(n1)NS(=O)(=O)c1cccc(c1)C(=O)N(Cc1ncc(N3CC(C)(C)C3)cn1)[C@H](CC1CCC1)CO2 [Compound 1594]	–	–	EC50 (with 44 nM potentiator): < 1000 nM; Emax (with 44 nM potentiator): > 60%
Cc1cccc(C)c1-c1cc2nc(n1)NS(=O)(=O)c1cccc(c1)C(=O)N(Cc1cncc(N(C)CC(C)C)n1)[C@H](CC1CCC1)CO2 [Compound 1712]	–	+++ (+++ is >60+)	EC50 (corrector at a range of concentrations with 44 nM potentiator): < 1000 nM; Emax (with 44 nM potentiator): > 60%
Cc1cccc(C)c1-c1cc2nc(n1)NS(=N)(=O)c1cccc(c1)C(=O)N(Cc1ncc(OC(C)C)cn1)[C@H](CC(C)(C)C)CO2 (stereo partly drawn) [Compound 1574]	++ (++ is 30-60%)	–	–
Cc1cccc(C)c1-c1cc2nc(n1)NS(=O)(=O)c1cccc(c1)C(=O)N(Cc1cncc(N3CCC[C@H]3C)n1)[C@H](COC(C)C)CO2 [Compound 1937]	–	+++ (+++ is >60+)	–
Cc1cccc(C)c1-c1cc2nc(n1)NS(=O)(=O)c1cccc(c1)C(=O)N(Cc1ncc(N3CCC(C)(C)CC3)cn1)[C@H](CC1(C)CC1)CO2 [Compound 1560]	+++ (+++ is >60+)	–	–
Cc1cccc(C)c1-c1cc2nc(n1)NS(=O)(=O)c1cccc(c1)C(=O)N(Cc1cncc(N(C)C3CCC3)n1)[C@H](C[C@H]1CCCOC1)CO2 (stereo in doubt) [Compound 1938]	–	+++ (+++ is >60+)	–
Cc1cccc(C)c1-c1cc2nc(n1)NS(=O)(=O)c1cccc(c1)C(=O)N(Cc1cncc(N3CCC4NC(=O)CC43)n1)[C@H](CC(C)(C)C)CO2 (stereo in doubt) [Compound 1621]	++ (++ is 30-60%)	–	–
Cc1cccc(C)c1-c1cc2nc(n1)NS(=O)(=O)c1cccc(c1)C(=O)N(Cc1cncc(N(C)C3CCC3)n1)[C@H](C1CC3(CCC3)C1)CO2 (single isomer, unassigned) [Compound 1321, 12-[[6-[cyclobutyl(methyl)amino]pyrazin-2-yl]methyl]-6-(2,6-dimethylphenyl)-2,2-dioxo-11-spiro[3.3]heptan-2-yl-9-oxa-2λ^6-thia-3,5,12,19-tetrazatricyclo[12.3.1.14,8]nonadeca-1(18),4(19),5,7,14,16-hexaen-13-one]	++ (++ is 30-60%)	–	–
Cc1cccc(C)c1-c1cc2nc(n1)NS(=O)(=O)c1cccc(c1)C(=O)N(Cc1cncc(N(C)C3CCC3)n1)[C@H](CC(C)(C)F)CO2 [Compound 1701]	–	–	EC50 (with 44 nM potentiator): < 1000 nM; Emax (with 44 nM potentiator): > 60%
Cc1cccc(C)c1-c1cc2nc(n1)NS(=O)(=O)c1cccc(c1)C(=O)N(Cc1cncc(N(C)[C@H]3C[C@H](F)C3)n1)[C@H](CCC(C)C)CO2 [Compound 1914]	–	+++ (+++ is >60+)	–
Cc1cccc(C)c1-c1cc2nc(n1)NS(=O)(=O)c1cccc(c1)C(=O)N(Cc1cncc(N3CCOCC34CCC4)n1)[C@H](CC(C)(C)C)CO2 [Compound 1627]	+++ (+++ is >60+)	–	–
Cc1cccc(C)c1-c1cc2nc(n1)NS(=O)(=O)c1cccc(c1)C(=O)N(Cc1cncc(N3CCC4OCCC43)n1)[C@H](CC(C)(C)C)CO2 (stereo partly drawn) [Compound 1642]	+++ (+++ is >60+)	–	–
Cc1cccc(C)c1-c1cc2nc(n1)NS(=O)(=O)c1cccc(c1)C(=O)N(Cc1cncc(N(C)C3CCC3)n1)[C@@H]1CN(CC(C)(C)C)CC1O2 (stereo in doubt) [Compound 1740]	–	++ (++ is 30-60%)	–
Cc1cccc(C)c1-c1cc2nc(n1)NS(=O)(=O)c1cccc(c1)C(=O)N(Cc1cncc(N3CCC[C@@H]4COC[C@@H]43)n1)[C@H](CC(C)(C)C)CO2 [Compound 1680]	+++ (+++ is >60+)	–	–
Cc1cccc(C)c1-c1cc2nc(n1)NS(=O)(=O)c1cccc(c1)C(=O)N(Cc1cncc(N(C)C3CCC3)n1)[C@H](CCC1CC1)CO2 [Compound 1684]	+++ (+++ is >60+)	–	EC50 (with 44 nM potentiator): < 1000 nM; Emax (with 44 nM potentiator): > 60%
Cc1cccc(C)c1-c1cc2nc(n1)NS(=O)(=O)c1cccc(c1)C(=O)N(Cc1cncc(N(C)CC(C)C)n1)[C@H](CCC1CC1)CO2 [Compound 1717]	–	+++ (+++ is >60+)	–
CCC(CC)[C@@H]1COc2cc(-c3c(C)cccc3C)nc(n2)NS(=O)(=O)c2cccc(c2)C(=O)N1Cc1cncc(N(C)C2CCC2)n1 [Compound 1779]	–	+++ (+++ is >60+)	–
Cc1cccc(C)c1-c1cc2nc(n1)NS(=O)(=O)c1cccc(c1)C(=O)N(Cc1cncc(N(C)C3CC4(CC4)C3)n1)[C@H](COC1CC1)CO2 [Compound 1904]	–	+++ (+++ is >60+)	–
Cc1cccc(C)c1-c1cc2nc(n1)NS(=O)(=O)c1cccc(c1)C(=O)N(Cc1cncc(N3CCC[C@H]3C)n1)[C@H](CC1CCCC1)CO2 [Compound 1888]	–	+++ (+++ is >60+)	–
Cc1cccc(C)c1-c1cc2nc(n1)NS(=N)(=O)c1cccc(c1)C(=O)N(Cc1ncc(N3CC(C)(C)C3)cn1)[C@H](CC(C)(C)C)CO2 (single isomer, unassigned) [Compound 1312]	++ (++ is 30-60%)	–	–
Cc1cccc(C)c1-c1cc2nc(n1)NS(=O)(=O)c1cccc(c1)C(=O)N(Cc1nc(N(C)C3CCC3)c(C)nc1C)[C@H](CC(C)(C)C)CO2 [Compound 1651]	+++ (+++ is >60+)	–	–
Cc1cccc(C)c1-c1cc2nc(n1)NS(=O)(=O)c1cccc(c1)C(=O)N(Cc1ncc(N3CC(C)(C)C3)cn1)[C@H](CC(C)C)CO2 [Compound 1563]	+++ (+++ is >60+)	–	–
Cc1cccc(C)c1-c1cc2nc(n1)NS(=O)(=O)c1cccc(c1)C(=O)N(Cc1cncc(C3CCOCC3)n1)[C@H](CCC(C)(C)C)CO2 [Compound 1879]	–	+++ (+++ is >60+)	–

Second part, led by results:

HBE2 Activity at 3 μM (%) (3 μM, with 44 nM potentiator)	HBE2 Activity at 3 μM (%) [1]	SMILES	also measured
–	+++ (+++ is >60+)	Cc1cccc(C)c1-c1cc2nc(n1)NS(=O)(=O)c1cccc(c1)C(=O)N(Cc1cncc(N3[C@H](C)CC[C@@H]3C)n1)[C@H](COC(C)C)CO2 [Compound 1950]	–
–	+++ (+++ is >60+)	CCn1c(C)cc2ncc(CN3C(=O)c4cccc(c4)S(=O)(=O)Nc4nc(cc(-c5c(C)cccc5C)n4)OC[C@H]3CC(C)(C)C)nc21 [Compound 1910]	–
+++ (+++ is >60+)	–	COCC1(N(C)c2cncc(CN3C(=O)c4cccc(c4)S(=O)(=O)Nc4nc(cc(-c5c(C)cccc5C)n4)OC[C@H]3CC(C)(C)C)n2)CCC1 [Compound 1635]	–
+++ (+++ is >60+)	–	CO[C@H](C)CN(C)c1cncc(CN2C(=O)c3cccc(c3)S(=O)(=O)Nc3nc(cc(-c4c(C)cccc4C)n3)OC[C@H]2CC(C)(C)C)n1 (stereo in doubt) [Compound 1634]	–
–	+++ (+++ is >60+)	Cc1cccc(C)c1-c1cc2nc(n1)NS(=O)(=O)c1cccc(c1)C(=O)N(Cc1cncc(N(C)C)n1)[C@H](CCC(C)(C)C)CO2 [Compound 1806]	–
–	+++ (+++ is >60+)	Cc1cccc(C)c1-c1cc2nc(n1)NS(=O)(=O)c1cccc(c1)C(=O)N(Cc1cnc3cc(C(C)C)n(C)c3n1)[C@H](CC(C)C)CO2 [Compound 1834]	–
–	+++ (+++ is >60+)	Cc1cccc(C)c1-c1cc2nc(n1)NS(=O)(=O)c1cccc(c1)C(=O)N(Cc1cncc(N(C)C(C)C)n1)[C@H](CCC(C)(C)C)CO2 [Compound 1788]	–
–	+++ (+++ is >60+)	Cc1cccc(C)c1-c1cc2nc(n1)NS(=O)(=O)c1cccc(c1)C(=O)N(Cc1cnc3cc(C(C)C)n(C)c3n1)[C@H](CC1CCCCC1)CO2 [Compound 1934]	–
–	++ (++ is 30-60%)	CCC(C)(C)C[C@@H]1COc2cc(-c3c(C)cccc3C)nc(n2)NS(=O)(=O)c2cccc(c2)C(=O)N1Cc1cncc(N2CCCC[C@H]2C)n1 [Compound 1862]	–
+++ (+++ is >60+)	–	Cc1cccc(C)c1-c1cc2nc(n1)NS(=O)(=O)c1cccc(c1)C(=O)N(Cc1ncc(N3CCC(C)(C)C3)cn1)[C@H](CC(C)(C)F)CO2 [Compound 1564]	–
–	++ (++ is 30-60%)	CCC(C)(C)C[C@@H]1COc2cc(-c3c(C)cccc3C)nc(n2)NS(=O)(=O)c2cccc(c2)C(=O)N1Cc1cncc(N2CC[C@H]2C)n1 [Compound 1860]	–
+++ (+++ is >60+)	–	Cc1cccc(C)c1-c1cc2nc(n1)NS(=O)(=O)c1cccc(c1)C(=O)N(Cc1cncc(N(C)CC(C)C)n1)[C@H](CC1(C)CC1)CO2 [Compound 1711]	EC50 (with 44 nM potentiator): < 1000 nM; Emax (with 44 nM potentiator): > 60%
+++ (+++ is >60+)	–	COCCCN(C)c1cncc(CN2C(=O)c3cccc(c3)S(=O)(=O)Nc3nc(cc(-c4c(C)cccc4C)n3)OC[C@H]2CC(C)(C)C)n1 [Compound 1693]	–
+++ (+++ is >60+)	–	CCCN(C)c1cncc(CN2C(=O)c3cccc(c3)S(=O)(=O)Nc3nc(cc(-c4c(C)cccc4C)n3)OC[C@H]2CC(C)(C)C)n1 [Compound 1694]	–
–	+++ (+++ is >60+)	Cc1cccc(C)c1-c1cc2nc(n1)NS(=O)(=O)c1cccc(c1)C(=O)N(Cc1cnc3cc(C(C)C)n(C)c3n1)[C@H](CC(C)(C)C(F)(F)F)CO2 [Compound 1836]	–
+++ (+++ is >60+)	–	Cc1cccc(C)c1-c1cc2nc(n1)NS(=O)(=O)c1cccc(c1)C(=O)N(Cc1cncc(N3CC4CC3(C)C4)n1)[C@H](CC(C)(C)C)CO2 [Compound 1691]	–
